Results published in patent US10544150B2, “NK-3 receptor selective antagonist compounds, pharmaceutical composition and methods for use in NK-3 receptors mediated disorders” (Ogeda SA, priority 2010, dated 2020).
pKi: −log10 of the molar value.

Biological target: human NK-3 receptor (Homo sapiens (Human), UniProt P29371)
Test: 3H-SB222200 binding competition assay with human NK-3 receptor
Conditions: 3H-SB222200 displacement, CHO cell membranes expressing human NK3 receptor; read-out: Ki range
Description: The affinity of compounds of the invention for the tachykinin receptors was determined by measuring the ability of the compounds of the invention to displace a radiolabeled ligand from its specifics binding site.
^3H-SB222200 Binding Competition Assay with Human NK-3 Receptor
The ability of the compounds of the invention to inhibit the binding of the NK-3 receptor selective antagonist SB222200 was assessed by an in vitro radioligand binding assay. Membranes were prepared from Chinese hamster ovary recombinant cells which express the human NK3 receptor. The membranes were incubated with 5 nM ^3H-SB222200_(ARC) in a HEPES 25 mM/NaCl 0.1M/CaCl2 1 mM/MgCl2 5 Mm/BSA 0.5%/Saponin 10 μg/ml buffer at pH 7.4 and various concentrations of the compounds of the invention. The amount of tritiated SB222200 bound to the receptor was determined after filtration by the quantification of membrane associated radioactivity using the TopCount-NXT reader (Packard). […] In Table 3 biological results obtained using the ^3H-SB222200 binding competition assay with compounds of the invention are set out in tabulated form. In this table the calculated Ki is given. The Ki value obtained (in accordance with the protocol set forth above) is represented as follows: “+++” means Ki<500 nM; “++” means 500 nM≤Ki≤1 μM; “+” means 1 μM<Ki≤5 μM; “#” means Ki>5 μM.

human NK-3 receptor, sequence (P29371 whole entry): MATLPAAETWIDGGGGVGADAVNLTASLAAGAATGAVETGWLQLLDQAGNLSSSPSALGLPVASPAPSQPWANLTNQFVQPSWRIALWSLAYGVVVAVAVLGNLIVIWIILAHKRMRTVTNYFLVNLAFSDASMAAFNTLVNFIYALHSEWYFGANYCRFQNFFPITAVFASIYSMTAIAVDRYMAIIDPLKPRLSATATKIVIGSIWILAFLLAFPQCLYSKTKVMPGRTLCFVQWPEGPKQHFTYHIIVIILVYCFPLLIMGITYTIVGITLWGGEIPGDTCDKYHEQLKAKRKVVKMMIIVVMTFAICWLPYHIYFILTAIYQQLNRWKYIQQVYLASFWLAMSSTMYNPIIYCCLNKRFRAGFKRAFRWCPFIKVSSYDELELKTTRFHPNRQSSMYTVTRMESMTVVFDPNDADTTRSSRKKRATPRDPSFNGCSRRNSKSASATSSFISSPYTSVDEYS

| pKi | SMILES |
| --- | --- |
| 5.30 to 6.00 | O=C(c1ccc(-c2cccs2)cc1)N1CCn2c(nnc2-c2csc(-c3ccc(N4CCOCC4)cc3)n2)C1 [Compound 239, (3-(2-(4-morpholinophenyl)thiazol-4-yl)-5,6-dihydro-[1,2,4]triazolo[4,3-a]pyrazin-7(8H)-yl)(4-(thiophen-2-yl)phenyl)methanone] |
| < 5.30 | COCC1CCCCN1c1nc(-c2nnc3n2CCN(C(=O)c2ccc(F)cc2)C3)cs1 (centres unmarked) [Compound 277, (4-fluorophenyl)(3-(2-(2-(methoxymethyl)piperidin-1-yl)thiazol-4-yl)-5,6-dihydro-[1,2,4]triazolo[4,3-a]pyrazin-7(8H)-yl)methanone] |
| < 5.30 | O=C(c1ccc(-c2cccs2)cc1)N1CCn2c(nnc2-c2nc(-c3ccc(F)cc3F)no2)C1 [Compound 185, (3-(3-(2,4-difluorophenyl)-1,2,4-oxadiazol-5-yl)-5,6-dihydro-[1,2,4]triazolo[4,3-a]pyrazin-7(8H)-yl)(4-(thiophen-2-yl)phenyl)methanone] |
| 5.30 to 6.00 | O=C(c1ccc(-c2ccccc2)cc1)N1CCn2c(nnc2-c2csc(Cn3cnc(Cl)c3Cl)n2)C1 [Compound 186, [1,1′-biphenyl]-4-yl(3-(2-((4,5-dichloro-1H-imidazol-1-yl)methyl)thiazol-4-yl)-5,6-dihydro-[1,2,4]triazolo[4,3-a]pyrazin-7(8H)-yl)methanone] |
| 5.30 to 6.00 | C[C@H]1c2nnc(-c3csc(-c4ccc(F)cc4)n3)n2CCN1C(=O)c1ccc(F)cc1 [Compound 160, (S)-(4-fluorophenyl)(3-(2-(4-fluorophenyl)thiazol-4-yl)-8-methyl-5,6-dihydro-[1,2,4]triazolo[4,3-a]pyrazin-7(8H)-yl)methanone] |
| > 6.30 | Cc1cccc(-c2nnc3n2CCN(C(=O)c2ccc(-c4ccccc4)cc2)C3C)n1 (centres unmarked) [Compound 286, [1,1′-biphenyl]-4-yl(8-methyl-3-(6-methylpyridin-2-yl)-5,6-dihydro-[1,2,4]triazolo[4,3-a]pyrazin-7(8H)-yl)methanone] |
| 6.00 to 6.30 | O=C(c1ccc(F)cc1)N1CCn2c(nnc2-c2ccc3cccc(Cl)c3n2)C1 [Compound 23, (3-(8-chloroquinolin-2-yl)-5,6-dihydro-[1,2,4]triazolo[4,3-a]pyrazin-7(8H)-yl)(4-fluorophenyl)methanone] |
| > 6.30 | O=C(c1ccc(-c2ccccc2)nc1)N1CCn2c(nnc2-c2ccc3ccccc3n2)C1 [Compound 91, (6-phenylpyridin-3-yl)(3-(quinolin-2-yl)-5,6-dihydro-[1,2,4]triazolo[4,3-a]pyrazin-7(8H)-yl)methanone] |
| < 5.30 | C[C@H]1c2nnc(-c3ccccn3)n2CCN1C(=O)c1ccc(F)cc1 [Compound 159, (S)-(4-fluorophenyl)(8-methyl-3-(pyridin-2-yl)-5,6-dihydro-[1,2,4]triazolo[4,3-a]pyrazin-7(8H)-yl)methanone] |
| > 6.30 | O=C(c1ccc(-c2ccccc2)cc1)N1CCn2c(nnc2-c2nc(-c3ccccc3)no2)C1 [Compound 217, [1,1′-biphenyl]-4-yl(3-(3-phenyl-1,2,4-oxadiazol-5-yl)-5,6-dihydro-[1,2,4]triazolo[4,3-a]pyrazin-7(8H)-yl)methanone] |
| > 6.30 | O=C(c1ccc(F)cc1)N1CCn2c(nnc2-c2csc(N3CCN(c4ccccc4)CC3)n2)C1 [Compound 34, (4-fluorophenyl)(3-(2-(4-phenylpiperazin-1-yl)thiazol-4-yl)-5,6-dihydro-[1,2,4]triazolo[4,3-a]pyrazin-7(8H)-yl)methanone] |
| 6.00 to 6.30 | Cn1cc(-c2nnc3n2CCN(C(=O)c2ccc(-c4cccs4)cc2)C3)nc1-c1ccccc1 [Compound 252, (3-(1-methyl-2-phenyl-1H-imidazol-4-yl)-5,6-dihydro-[1,2,4]triazolo[4,3-a]pyrazin-7(8H)-yl)(4-(thiophen-2-yl)phenyl)methanone] |
| > 6.30 | O=C(c1ccc(-c2cccs2)cc1)N1CCn2c(nnc2-c2csc(N3CCCC3)n2)C1 [Compound 248, (3-(2-(pyrrolidin-1-yl)thiazol-4-yl)-5,6-dihydro-[1,2,4]triazolo[4,3-a]pyrazin-7(8H)-yl)(4-(thiophen-2-yl)phenyl)methanone] |
| < 5.30 | CC1(C)CCN(c2nc(-c3nnc4n3CCN(C(=O)c3ccc(F)cc3)C4)cs2)CC1 [Compound 276, (3-(2-(4,4-dimethylpiperidin-1-yl)thiazol-4-yl)-5,6-dihydro-[1,2,4]triazolo[4,3-a]pyrazin-7(8H)-yl)(4-fluorophenyl)methanone] |
| > 6.30 | CC1(C)CN(c2nc(-c3nnc4n3CCN(C(=O)c3ccc(-c5cccs5)cc3)C4)cs2)CCO1 [Compound 266, (3-(2-(2,2-dimethylmorpholino)thiazol-4-yl)-5,6-dihydro-[1,2,4]triazolo[4,3-a]pyrazin-7(8H)-yl)(4-(thiophen-2-yl)phenyl)methanone] |
| 5.30 to 6.00 | O=C(c1cc(-c2ccc(Oc3ccccc3)cc2)n[nH]1)N1CCn2c(nnc2-c2ccccn2)C1 [Compound 18, (3-(4-phenoxyphenyl)-1H-pyrazol-5-yl)(3-(pyridin-2-yl)-5,6-dihydro-[1,2,4]triazolo[4,3-a]pyrazin-7(8H)-yl)methanone] |
| > 6.30 | CC1c2nnc(-c3ccc4ccccc4n3)n2CCN1C(=O)c1ccc(F)cc1 (centres unmarked) [Compound 61, (4-fluorophenyl)(8-methyl-3-(quinolin-2-yl)-5,6-dihydro-[1,2,4]triazolo[4,3-a]pyrazin-7(8H)-yl)methanone] |
| > 6.30 | O=C(c1ccc(F)cc1)N1CCn2c(nnc2-c2cccc(-c3ccccc3)n2)C1 [Compound 25, (4-fluorophenyl)(3-(6-phenylpyridin-2-yl)-5,6-dihydro-[1,2,4]triazolo[4,3-a]pyrazin-7(8H)-yl)methanone] |
| > 6.30 | Cc1ccsc1-c1ccc(C(=O)N2CCn3c(-c4csc(-c5ccc(F)cc5)n4)nnc3C2C)cc1 (centres unmarked) [Compound 268, (3-(2-(4-fluorophenyl)thiazol-4-yl)-8-methyl-5,6-dihydro-[1,2,4]triazolo[4,3-a]pyrazin-7(8H)-yl)(4-(3-methylthiophen-2-yl)phenyl)methanone] |
| 5.30 to 6.00 | Cn1nc(-c2ccccc2)cc1-c1nnc2n1CCN(C(=O)c1ccc(F)cc1)C2 [Compound 225, (4-fluorophenyl)(3-(1-methyl-3-phenyl-1H-pyrazol-5-yl)-5,6-dihydro-[1,2,4]triazolo[4,3-a]pyrazin-7(8H)-yl)methanone] |
| > 6.30 | O=C(c1ccc(F)cc1)N1CCn2c(nnc2-c2csc(N3CCC(F)(F)CC3)n2)C1 [Compound 258, (3-(2-(4,4-difluoropiperidin-1-yl)thiazol-4-yl)-5,6-dihydro-[1,2,4]triazolo[4,3-a]pyrazin-7(8H)-yl)(4-fluorophenyl)methanone] |
| > 6.30 | O=C(c1ccc(-c2cccs2)cc1)N1CCn2c(nnc2-c2csc(-c3ccncc3)n2)C1 [Compound 228, (3-(2-(pyridin-4-yl)thiazol-4-yl)-5,6-dihydro-[1,2,4]triazolo[4,3-a]pyrazin-7(8H)-yl)(4-(thiophen-2-yl)phenyl)methanone] |
| > 6.30 | O=C(c1ccc(-c2cccs2)cc1)N1CCn2c(nnc2-c2csc(-c3ccc(F)cc3)n2)C1 [Compound 73, (3-(2-(4-fluorophenyl)thiazol-4-yl)-5,6-dihydro-[1,2,4]triazolo[4,3-a]pyrazin-7(8H)-yl)(4-(thiophen-2-yl)phenyl)methanone] |
| > 6.30 | O=C(c1ccc(-c2cccs2)cc1)N1CCn2c(nnc2-c2csc(-c3cccs3)n2)C1 [Compound 194, (4-(thiophen-2-yl)phenyl)(3-(2-(thiophen-2-yl)thiazol-4-yl)-5,6-dihydro-[1,2,4]triazolo[4,3-a]pyrazin-7(8H)-yl)methanone] |
| > 6.30 | Cc1sccc1-c1ccc(C(=O)N2CCn3c(-c4csc(-c5ccc(F)cc5)n4)nnc3[C@H]2C)cc1 [Compound 234, (R)-(3-(2-(4-fluorophenyl)thiazol-4-yl)-8-methyl-5,6-dihydro-[1,2,4]triazolo[4,3-a]pyrazin-7(8H)-yl)(4-(2-methylthiophen-3-yl)phenyl)methanone] |
| 6.00 to 6.30 | CC1(C)CCN(c2nc(-c3nnc4n3CCN(C(=O)c3ccc(-c5cccs5)cc3)C4)cs2)CC1 [Compound 274, (3-(2-(4,4-dimethylpiperidin-1-yl)thiazol-4-yl)-5,6-dihydro-[1,2,4]triazolo[4,3-a]pyrazin-7(8H)-yl)(4-(thiophen-2-yl)phenyl)methanone] |
| > 6.30 | O=C(c1ccc(-c2cccs2)cc1)N1CCn2c(nnc2-c2csc(-c3ccccn3)n2)C1 [Compound 224, (3-(2-(pyridin-2-yl)thiazol-4-yl)-5,6-dihydro-[1,2,4]triazolo[4,3-a]pyrazin-7(8H)-yl)(4-(thiophen-2-yl)phenyl)methanone] |
| 6.00 to 6.30 | O=C(c1ccc(-c2ccc(F)cc2)cc1)N1CCn2c(nnc2-c2csc(CS(=O)(=O)c3ccc(Cl)cc3)n2)C1 [Compound 200, (3-(2-(((4-chlorophenyl)sulfonyl)methyl)thiazol-4-yl)-5,6-dihydro-[1,2,4]triazolo[4,3-a]pyrazin-7(8H)-yl)(4′-fluoro-[1,1′-biphenyl]-4-yl)methanone] |
| > 6.30 | CC1c2nnc(-c3coc(-c4ccccc4)n3)n2CCN1C(=O)c1ccc(-c2ccccc2)cc1 (centres unmarked) [Compound 49, [1,1′-biphenyl]-4-yl(8-methyl-3-(2-phenyloxazol-4-yl)-5,6-dihydro-[1,2,4]triazolo[4,3-a]pyrazin-7(8H)-yl)methanone] |
